Earlier results in PMC9705454 (Clinical Drug Investigation, 2022).

Assays:
[1] = metabolite slowly released from the subcutaneous depot

half-life in circulation	Substance	share of plasma exposure accounted for by the main active metabolite [1] [%]
approximately 2 h	teduglutide	–
–	insulin glargine	> 90
